Laboratory results taken from PMC7811808, “Design, synthesis, and biological evaluation of novel 5,6,7-trimethoxy quinolines as potential anticancer agents and tubulin polymerization inhibitors” (Iranian Journal of Basic Medical Sciences, 2020).
Where two headings read alike, the source gives them in different places.

What was measured:
[1] = system: MCF-7/MX; experiment: MTT antiproliferative activity assay; format: cell-based; conditions: Homo sapiens, MCF7/MX, read-out: IC50 MCF-7/MX
Description: (§1) The MTT assay was done by seeding 5.0×10^3 human cancer cells or normal cells per well in 96-well plates ([34]-[36]). Following overnight incubation of the cells in 5% CO2 at 37 °C, culture medium of each well was exchanged with medium having reference anti-cancer agent CA-4 as well as different concentrations of synthesized compounds and RPMI (no drug) negative control and cells were incubated 48 hr. Then MTT solution (25 μl, 4 mg ml ^-1) was added to each well and the cells were incubated at 37 °C (for 3 hr). Finally, formazan crystals were dissolved in DMSO (100 μl) and plates were read in a plate reader (Synergy H4, USA) at 540 nm. The cytotoxic activity of the synthesized compounds was evaluated against different human cancer cell lines including […]-7 and MCF-7/MX, and normal cells by MTT assay. Combretastatin A-4 (CA-4) was used as the positive control.

[2] = system: A2780/RCIS; experiment: MTT antiproliferative activity assay; format: cell-based; conditions: Homo sapiens, read-out: IC50 A2780/RCIS
Description: as §1

[3] = system: A2780; experiment: MTT antiproliferative activity assay; format: cell-based; conditions: Homo sapiens, 48 hr
Description: as §1

[4] = system: MCF-7; experiment: MTT antiproliferative activity assay; format: cell-based; conditions: Homo sapiens, MCF7, 48 hr
Description: as §1

[5] = system: HUVEC; experiment: MTT assay on normal cells; format: cell-based; conditions: Homo sapiens, 48 hr
Description: as §1

[6] = system: A2780, A2780/RCIS, MCF-7 and MCF-7/MX; experiment: MTT assay, statements over all four cancer cell lines; format: cell-based; conditions: Homo sapiens, range over four cell lines, read-out: IC50 values range against all four human cancer cells
Description: as §1

[7] = system: MCF-7/MX cancer cells; experiment: Cell cycle analysis by flow cytometry (PI); format: cell-based, human; conditions: 48 hr
From the text: (§2) Flow cytometry with propidium iodide (PI) was used to analyze the cell numbers in the cell cycle phases. […] Flowjo software 7.6 was used to analyze the data regarding the cell numbers in different phases of the cell cycle.
(§3) Tubulin inhibitors arrest cell cycle at the G2/M phase in cancer cells owing to destruction of the microtubular cytoskeleton. To get more understanding of the mechanism of action, the effects of compounds 7f and 7e on the cell cycle were examined by ﬂow cytometry in four human cancer cell lines (MCF-7, MCF-7/MX, A2780, and A2780/RCIS). […] When A2780 cancer cells were treated with 7f and 7e for 48 hr, the percentage of cells in the G2/M phase was 15.70% (7f, 1 μM), 17.74% (7f, 10 μM), 23.30% (7e, 5μM), and 4.15% (7e, 15μM) compared with the negative control (4.84%). Moreover, the percentage of A2780 cancer cells in the subG1 phase was 18.58% (7f, 10 μM) and 68.16% (7e, 15 μM).

[8] = system: A2780/RCIS cancer cells; experiment: Cell cycle analysis by flow cytometry (PI); format: cell-based, human; conditions: 48 hr
From the text: as §2, §3

[9] = system: MCF-7 cancer cells; experiment: Cell cycle analysis by flow cytometry (PI); format: cell-based, human; conditions: 48 hr
From the text: as §2, §3

[10] = system: A2780 cancer cells; experiment: Cell cycle analysis by flow cytometry (PI); format: cell-based, human; conditions: 48 hr
From the text: as §2, §3

[11] = molecular target: T1, tubulin (Sus scrofa, UniProt P02550+P02554); experiment: In vitro tubulin polymerization assay (fluorescence kit); format: biochemical; conditions: compound 20 µM; CA-4 5 µM
T1 construct: purchased cytoskeleton BK011P
T1 sequence (P02550 whole entry): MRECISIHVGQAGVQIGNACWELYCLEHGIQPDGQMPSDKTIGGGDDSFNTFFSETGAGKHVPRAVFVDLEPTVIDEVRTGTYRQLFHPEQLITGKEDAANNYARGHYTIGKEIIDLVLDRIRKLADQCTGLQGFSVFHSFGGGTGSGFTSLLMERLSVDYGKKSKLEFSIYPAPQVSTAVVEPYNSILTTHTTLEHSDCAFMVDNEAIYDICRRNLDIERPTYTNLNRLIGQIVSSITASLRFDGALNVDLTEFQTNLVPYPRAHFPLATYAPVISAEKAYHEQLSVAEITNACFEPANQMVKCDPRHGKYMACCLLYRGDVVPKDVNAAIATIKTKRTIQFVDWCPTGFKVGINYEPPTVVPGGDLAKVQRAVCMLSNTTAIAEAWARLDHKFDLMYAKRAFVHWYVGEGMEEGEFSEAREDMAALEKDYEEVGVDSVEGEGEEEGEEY
T1 sequence (P02554 whole entry): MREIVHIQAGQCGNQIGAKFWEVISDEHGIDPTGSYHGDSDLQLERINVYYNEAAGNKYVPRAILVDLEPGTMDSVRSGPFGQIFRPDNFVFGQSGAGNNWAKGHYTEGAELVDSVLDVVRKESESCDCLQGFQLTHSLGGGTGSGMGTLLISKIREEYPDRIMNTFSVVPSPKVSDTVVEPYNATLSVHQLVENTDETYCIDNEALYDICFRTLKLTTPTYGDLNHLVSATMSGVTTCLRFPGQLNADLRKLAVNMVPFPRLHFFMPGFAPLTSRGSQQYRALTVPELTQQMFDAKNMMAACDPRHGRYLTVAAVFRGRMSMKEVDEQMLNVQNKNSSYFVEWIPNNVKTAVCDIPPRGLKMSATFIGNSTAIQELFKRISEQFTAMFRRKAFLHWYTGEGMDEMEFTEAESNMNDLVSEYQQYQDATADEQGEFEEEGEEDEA
Description: A commercial kit (cytoskeleton, cat. #BK011P) was used to evaluate the tubulin polymerization inhibition activity of compounds ([37]). Briefly, tubulin protein was added to tubulin buffer (80 mM PIPES, 2 mM MgCl2, 0.5 mM EGTA, 1 mM GTP, […], PH 6.9) and the acquired mixture was added to wells of a 96-well plate comprising the cytotoxic compounds or vehicle. Tubulin polymerization was observed by detecting the fluorescence augmentation due to the addition of a fluorescence reporter into microtubules as polymerization occurred. Polymerization was measured by excitation at 360 nm and emission at 420 nm for 1 hr at 1 min intervals in a plate reader (Synergy H4, USA). CA-4 (5 μM) and paclitaxel (3 μM) were used as positive destabilizing and positive stabilizing controls, respectively.
In order to check if the cytotoxic activity of our quinolines was correlated to their ability to inhibit tubulin, compounds 7e and 7f and CA4 (polymerization suppressor) and paclitaxel (polymerization promoter) were assessed for their activity in a microtubule polymerization assay.

Row | SMILES | melting point [°C] | IC50 ([1]; MTT, 48 hr) [µM] | IC50 ([2]; A2780, MTT, 48 hr) [µM] | IC50 [3] [µM] | IC50 [4] [µM] | IC50 [5] [µM] | IC50 [6] [µM] | G2/M ([7]; 10 μM) [%] | G2/M ([7]; 20 μM) [%] | G2/M ([8]; 1 μM) [%] | G2/M ([8]; 5 μM) [%] | G2/M ([9]; MCF-7, 1 μM) [%] | G2/M ([9]; MCF-7, 10 μM) [%] | G2/M ([10]; A2780, 1 μM) [%] | G2/M ([10]; A2780, 10 μM) [%] | SubG1 ([10]; A2780, 10 μM) [%] | tubulin polymerization inhibition [11] | IC50 ([1]; 48 h) [µM] | IC50 ([2]; A2780, 48 h) [µM]
1 | COc1cc2nc(/C=C/c3ccc(C)cc3)cc(Cl)c2c(OC)c1OC [Compound 9b, E-4-Chloro-5,6,7-trimethoxy-2-(4-methylstyryl)quinoline] | 153 to 155 | > 100 | > 100 | > 100 | > 100 | > 100 | – | – | – | – | – | – | – | – | – | – | – | – | –
2 | COc1ccc(Nc2cc(C)nc3cc(OC)c(OC)c(OC)c23)cc1OC [Compound 7b, N-(3,4-dimethoxyphenyl)-5,6,7-trimethoxy-2-methylquinolin-4-amine] | 182 to 185 | 62.8 ± 5.27 | 51.5 ± 4.86 | 27.1 ± 3.25 | 63.7 ± 4.35 | > 100 | – | – | – | – | – | – | – | – | – | – | – | – | –
3 | COc1ccc(/C=C/c2cc(Cl)c3c(OC)c(OC)c(OC)cc3n2)cc1 [Compound 9d, E-4-Chloro-5,6,7-trimethoxy-2-(4-methoxystyryl)quinoline] | – | 44.1 ± 3.57 | 33.8 ± 3.48 | 39.9 ± 3.74 | 42.8 ± 3.48 | 96.2 ± 5.38 | – | – | – | – | – | – | – | – | – | – | – | – | –
4 | COc1cc2nc(/C=C/c3ccc([N+](=O)[O-])cc3)cc(Cl)c2c(OC)c1OC [Compound 9g, E-4-Chloro-5,6,7-trimethoxy-2-(4-nitrostyryl)quinoline] | 162 to 164 | > 100 | > 100 | > 100 | > 100 | > 100 | – | – | – | – | – | – | – | – | – | – | – | – | –
5 | COc1cc(Nc2cc(C)nc3cc(OC)c(OC)c(OC)c23)cc(OC)c1OC [Compound 7c, 5,6,7-Trimethoxy - 2-methyl - -N-(3,4,5-methoxyphenyl) quinolin-4-amine] | 175 to 178 | 69.8 ± 4.85 | > 100 | 80.2 ± 5.23 | > 100 | > 100 | – | – | – | – | – | – | – | – | – | – | – | – | –
6 | COc1ccc(Nc2cc(C)nc3cc(OC)c(OC)c(OC)c23)cc1 [Compound 7a, 5,6,7-Trimethoxy-N-(4-methoxyphenyl)-2-methylquinolin-4-amine] | 191 to 194 | 65.9 ± 4.42 | 29.9 ± 2.87 | 16.4 ± 2.13 | 55.3 ± 5.37 | 55.9 ± 3.87 | – | – | – | – | – | – | – | – | – | – | – | – | –
7 | COc1cc2nc(/C=C/c3ccc(F)cc3)cc(Cl)c2c(OC)c1OC [Compound 9c, E-4-Chloro-5,6,7-trimethoxy-2-(4-fluorostyryl)quinoline] | 173 to 176 | > 100 | > 100 | > 100 | > 100 | > 100 | – | – | – | – | – | – | – | – | – | – | – | – | –
8 | COc1ccc(Nc2cc(C)nc3cc(OC)c(OC)c(OC)c23)cc1O [Compound 7d, 2-Methoxy-5-((5,6,7-trimethoxy-2-methylquinolin-4-yl)amino)phenol] | 182 to 184 | 78.2 ± 5.37 | 44.7 ± 2.76 | 29.6 ± 2.98 | 53.6 ± 3.66 | 62.7 ± 5.42 | – | – | – | – | – | – | – | – | – | – | – | – | –
9 | COc1cc(/C=C/c2cc(Cl)c3c(OC)c(OC)c(OC)cc3n2)cc(OC)c1OC [Compound 9f, E-4-Chloro-5,6,7-trimethoxy-2-(3,4,5-trimethoxystyryl)quinoline] | 163 to 165 | 28 ± 2.64 | 11.7 ± 2.63 | 47.9 ± 4.25 | > 100 | > 100 | – | – | – | – | – | – | – | – | – | – | – | – | –
10 | COc1cc2nc(/C=C/c3ccccc3)cc(Cl)c2c(OC)c1OC [Compound 9a, E-4-Chloro-5,6,7-trimethoxy-2-styrylquinoline] | 110 to 113 | 64.6 ± 5.29 | 46.2 ± 3.57 | 30.5 ± 3.22 | 63.7 ± 5.27 | 74 ± 5.95 | – | – | – | – | – | – | – | – | – | – | – | – | –
11 | COc1ccc(/C=C/c2cc(Cl)c3c(OC)c(OC)c(OC)cc3n2)cc1OC [Compound 9e, E-4-Chloro-5,6,7-trimethoxy-2-(3,4-dimethoxystyryl)quinoline] | 122 to 124 | > 100 | > 100 | > 100 | > 100 | > 100 | – | – | – | – | – | – | – | – | – | – | – | – | –
12 | COc1cc2nc(C)cc(Nc3ccccc3Oc3ccccc3)c2c(OC)c1OC [Compound 7g, 5,6,7-Trimethoxy-2-methyl-N-(2-phenoxyphenyl)quinolin-4-amine] | 150 to 153 | 16.3 ± 2.39 | 10.1 ± 2.25 | 12.1 ± 2.17 | 35.8 ± 3.29 | 27.7 ± 2.63 | 5.02 to 35.8 | – | – | – | – | – | – | – | – | – | – | – | –
13 | COc1cc2nc(C)cc(Nc3ccc(Oc4ccccc4)cc3)c2c(OC)c1OC [Compound 7f, 5,6,7-Trimethoxy-2-methyl-N-(4-phenoxyphenyl)quinolin-4-amine] | 192 to 195 | 9.04 ± 1.2 | 5.02 ± 1.14 | 8.43 ± 1.85 | 10.1 ± 1.63 | 8.9 ± 1.26 | 5.02 to 35.8 | 23.73 | 29.37 | 20.68 | 19.38 | 19.01 | 24.01 | 15.70 | 17.74 | 18.58 | inhibited tubulin polymerization in a way similar to that of CA-4 | – | –
14 | COc1ccc(/C=C\c2cc(OC)c(OC)c(OC)c2)cc1O [CA-4, Combretastatin A-4, reference compound] | – | – | – | 0.249 ± 0.091 | 0.438 ± 0.15 | 0.565 ± 0.26 | – | – | – | – | – | – | – | – | – | – | – | 1.49 ± 0.27 | 0.229 ± 0.11
